Like-named read-outs stand apart in the source and are kept apart here. Bounds are passed on as bounds.

Common to all, as to type: cell-based
In test [1] the test system is LPS-mediated RANTES production in THP-1 cells. As to the kind of experiment: LPS-mediated RANTES production in THP-1 cells. To be noted: Homo sapiens; 12.5 μM test compound; THP-1 cells, LPS 1 μg/ml; NI = no inhibition. On the procedure: (§1) THIAA derivatives synthesized in Examples 1-19 were dissolved in dimethyl sufoxide (DMSO) and stored at −20° C. LPS was purchased from Sigma Chemicals (St. Louis, Miss.).
(§2) The effect of the THIAA derivatives on LPS-mediated MMP-9, IL-1β, ([…], MCP-1, RANTES, and MIP-1α was evaluated in THP-1 cells. Stimulation of THP-1 cells with LPS (1 μg/ml) activated the production of MMP-9, IL-1β, MCP-1, RANTES, and MIP-1α.
(§3) Results are summarized in Table 2, with data represented as % inhibition of inflammatory mediator production.

Test [2] has as its system LPS-mediated MIP-1α production in THP-1 cells. Put plainly: LPS-mediated MIP-1α production in THP-1 cells. To be noted: Homo sapiens; 12.5 μM test compound; THP-1 cells, LPS 1 μg/ml; NI = no inhibition. On the procedure:
as §1, §2, §3

Test [3] relates to LPS-mediated MCP-1 production in THP-1 cells. As to the kind of experiment: LPS-mediated MCP-1 production in THP-1 cells. To be noted: Homo sapiens; 12.5 μM test compound; THP-1 cells, LPS 1 μg/ml; NI = no inhibition. As to the method:
as §1, §2, §3

In test [4] the test system is LPS-mediated inflammatory mediators in RAW264.7 and THP-1 cells. Put plainly: Mean inhibition across all six inflammatory mediators. To be noted: 12.5 μM test compound. As to the method:
(§4) The effect of the THIAA derivatives on LPS-mediated prostaglandin E2 (PGE2) and nitric oxide (NO) production was evaluated in a RAW264.7 murine macrophage model. The RAW 264.7 cell line was purchased from ATCC (Manassas, Va.) and maintained according to their instructions. Cells were grown and subcultured in 96-well plates at a density of 8×10^4 cells per well, and reached 80-90% confluence the next day. THIAA derivatives were added to the cells in serum-free medium at a final concentration of 0.1% DMSO. Following one hour of incubation with the THIAA derivatives, LPS (1 μg/ml) or DMEM medium alone was added to the cells and incubation was continued for 6 hours. Stimulation of RAW 264.7 cells with LPS (1 μg/ml) for 6 hours activated the production of PGE2 and NO. Supernatant media was collected for measurement of PGE2 levels. For NO, incubations were continued overnight. Supernatant media was collected for measurement of NO levels after 16 hours of stimulation. PGE2 levels were measured using assay kits from Assay Designs, (Ann Arbor, Mich.) and NO levels were measured using assay kits from Cayman Chemicals (Ann Harbor, Mich.).
as §2, §3
Mean inhibition across all six inflammatory mediators was calculated for each of the THIAA derivatives.

Test [5] concerns LPS-mediated prostaglandin E2 (PGE2) production in RAW264.7 cells. Put plainly: LPS-mediated PGE2 production in RAW264.7 murine macrophage model. To be noted: 12.5 μM test compound, LPS 1 μg/ml, NI = no inhibition; for inhibition at 12.5 µM: Mus musculus, RAW264.7, 6 h. As to the method: as §1, §4, §3
For test [6], the system named is LPS-mediated nitric oxide (NO) production in RAW264.7 cells. As to the kind of experiment: LPS-mediated NO production in RAW264.7 murine macrophage model. To be noted: Mus musculus, 12.5 μM test compound, LPS 1 μg/ml, NI = no inhibition. As to the method:
as §1, §4, §3

The next test concerns the target T1, PPARα (Homo sapiens, UniProt Q07869).
T1 sequence (Q07869 1-468): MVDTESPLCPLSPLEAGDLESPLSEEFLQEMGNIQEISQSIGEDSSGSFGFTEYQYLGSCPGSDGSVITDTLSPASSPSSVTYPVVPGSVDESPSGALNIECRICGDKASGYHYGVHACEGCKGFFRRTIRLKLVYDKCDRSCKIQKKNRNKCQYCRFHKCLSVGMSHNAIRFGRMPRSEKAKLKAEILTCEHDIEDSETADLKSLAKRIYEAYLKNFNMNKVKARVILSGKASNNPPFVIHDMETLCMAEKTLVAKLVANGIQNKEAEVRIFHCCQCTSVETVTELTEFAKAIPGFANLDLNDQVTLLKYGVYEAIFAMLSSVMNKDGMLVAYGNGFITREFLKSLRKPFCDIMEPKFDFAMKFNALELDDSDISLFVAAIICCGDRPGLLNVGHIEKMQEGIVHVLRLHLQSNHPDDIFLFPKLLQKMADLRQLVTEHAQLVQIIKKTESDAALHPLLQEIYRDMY
As to the kind of experiment: PPARα reporter assay (INDIGO Biosciences). To be noted: for Emax at 12.5 µM: read-out: PPARα % GW590735 (20.6 nM). As to the method: (§5) The functional effect of THIAA derivatives on PPARα and PPARγ activity was evaluated using a PPAR reporter assay (INDIGO Biosciences, Pa.). This assay utilizes non-human mammalian cells engineered to provide constitutive high level expression of PPARα, or PPARγ and containing a luciferase report gene specific to the appropriate PPAR. Following activation by agonist binding, PPAR induces expression of the luciferase reporter gene. Luciferase activity therefore provides a surrogate for measuring PPAR activity in agonist-treated cells.
(§6) 0.1% DMSO was used as a solvent control for each assay. Plates were incubated for 20 hours in a humidified incubator at 37° C. and 5% CO2. After incubation, the cell medium was discarded and the cells were treated with 100 μL of luciferase detection reagent for 15 minutes. Plates were analyzed using a luminometer (Victor2, Perkin Elmer). Average relative light unit (RLU) and standard deviation were measured.
Background: Reporter assays use an easily measured gene product as a stand-in for the process of interest.

Test [7] deals with LPS-mediated IL-6 production in THP-1 cells. Put plainly: LPS-mediated IL-6 production in THP-1 cells. To be noted: Homo sapiens; 12.5 μM test compound; THP-1 cells, LPS 1 μg/ml; NI = no inhibition. As to the method: as §1, §2, §3
In a further test the target is T2, PPARγ (Homo sapiens, UniProt P37231).
T2 sequence (P37231 1-505): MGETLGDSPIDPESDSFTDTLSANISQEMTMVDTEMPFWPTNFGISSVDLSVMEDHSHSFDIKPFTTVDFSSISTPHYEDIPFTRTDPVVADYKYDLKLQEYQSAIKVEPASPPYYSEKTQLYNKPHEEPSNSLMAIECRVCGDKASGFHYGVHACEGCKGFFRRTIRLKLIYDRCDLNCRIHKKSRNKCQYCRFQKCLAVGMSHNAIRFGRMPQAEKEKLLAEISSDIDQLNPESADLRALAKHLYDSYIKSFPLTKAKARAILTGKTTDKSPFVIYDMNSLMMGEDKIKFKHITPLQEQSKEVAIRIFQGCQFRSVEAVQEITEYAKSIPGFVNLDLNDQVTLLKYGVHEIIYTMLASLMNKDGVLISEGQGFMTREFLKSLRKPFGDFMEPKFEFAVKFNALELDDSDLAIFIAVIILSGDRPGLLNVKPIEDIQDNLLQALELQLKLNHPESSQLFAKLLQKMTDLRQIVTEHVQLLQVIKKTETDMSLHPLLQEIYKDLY
As to the kind of experiment: PPARγ reporter assay (INDIGO Biosciences). To be noted: 20 h. As to the method: as §5, §6

The mark [8] stands for this setting: 12.5 μM test compound, luciferase reporter cells, 20 hours, activity compared to GW590735.
Where [9] appears, read: read-out: PPARγ % rosiglitazone (500 nM), 12.5 μM test compound, luciferase reporter cells, 20 hours, activity compared to rosiglitazone.

Usually inhibition stands for the relative decrease from the control value, in per cent. For the compound `CC(C)CC[C@H]1C(=O)C(C(=O)CC(C)C)=C(O)[C@]1(O)C(=O)CCC(C)C(=O)O` (stereo partly drawn) [KDT0038, 5-[(1S,5R)-1,2-dihydroxy-3-(3-methylbutanoyl)-5-(3-methylbutyl)-4-oxocyclopent-2-en-1-yl]-2-methyl-5-oxopentanoic Acid], the inhibition at 12.5 µM in test [1] is < 20%; in test [2], < 0%; in [3] it was 46%; in test [4], < 20%; in test [5], < 0%; in [6] (RAW264.7, 16 h), < 0%. Moreover, the inhibition at 12.5 µM in [7] was < 0%. Further, the Emax at 12.5 µM on PPARα (setting [8]) and at PPARγ (setting [9]) was < 5% throughout.

As for `CC(C)CCC(=O)[C@@]1(O)C(=O)/C(=C(\CC(C)C)NCc2ccccc2)C(=O)[C@@H]1CCC(C)C` [KDT0024, (4R,5R)-2-[1-(benzylamino)-3-methylbutylidene]-4-hydroxy-5-(3-methylbutyl)-4-(4-methylpentanoyl)cyclopentane-1,3-dione], the inhibition at 12.5 µM in test [1] was 20%; in [2], < 0%; in [3] it was 80%; in test [4], 44%; in test [5] it was 81%; in test [6] (RAW264.7, 16 h) it was 27%. Besides, the inhibition at 12.5 µM in [7] stood at 53%. Moreover, the Emax at 12.5 µM on PPARα (setting [8]) and at PPARγ (setting [9]) was < 5% each time.

Take `CC(C)CCC(O)[C@@]1(O)C(O)=C(C(=O)CC(C)C)C(=O)[C@@H]1CCC(C)C` (stereo partly drawn) [KDT0039, (4R,5R)-3,4-dihydroxy-4-(1-hydroxy-4-methylpentyl)-2-(3-methylbutanoyl)-5-(3-methylbutyl)cyclopent-2-en-1-one]: the inhibition at 12.5 µM in test [1] was 58%; in test [2], 23%; in [3], 50%; in test [4], 26%; in [5], < 0%; in [6] (RAW264.7, 16 h), < 20%. Also, 12.5 µM produced 22% inhibition in test [7]. Also, the Emax at 12.5 µM at PPARα (setting [8]) and on PPARγ (setting [9]) was < 5% in each case.

On to `CC(C)=CC[C@H]1C(=O)C(C(=O)CC(C)C)=C(O)[C@]1(O)C(=O)/C=C/C(C)(C)O` [KDT0040, (4S,5R)-3,4-dihydroxy-4-[(2E)-4-hydroxy-4-methylpent-2-enoyl]-2-(3-methylbutanoyl)-5-(3-methylbut-2-en-1-yl)cyclopent-2-en-1-one], for which the inhibition at 12.5 µM was 18% in [1]; < 0% in [2]; 53% in test [3]; 25% in test [4]; 54% in test [5]; 26% in [6] (RAW264.7, 16 h). For the same compound, the inhibition at 12.5 µM in test [7] is < 0%. The Emax at 12.5 µM at PPARα (setting [8]) and on PPARγ (setting [9]) was < 5% in each case.

Turning to `CO/N=C(/CC(C)C)C1=C(O)[C@](O)(C(O)CCC(C)C)[C@@H](CCC(C)C)C1=O` (stereo partly drawn) [KDT0005, (4R,5R)-3,4-dihydroxy-4-(1-hydroxy-4-methylpentyl)-2-(N-methoxy-3-methylbutanimidoyl)-5-(3-methylbutyl)cyclopent-2-en-1-one], the inhibition at 12.5 µM in [1] is 25%; in test [2] it was 20%; in [3] it was 38%; in test [4], < 20%; in test [5] it was < 0%; in [6] (RAW264.7, 16 h) it was < 0%. For the same compound, the inhibition at 12.5 µM in test [7] is < 20%. Besides, the Emax at 12.5 µM on PPARα (setting [8]) and at PPARγ (setting [9]) was < 5% throughout.

For `CC(C)CCC(=O)[C@@]1(O)C(O)=C(C(=O)CC(C)C)C(=O)[C@H]1CCC(C)C` [KDT700, (4S,5S)-3,4-dihydroxy-2-(3-methylbutanoyl)-5-(3-methylbutyl)-4-(4-methylpentanoyl)cyclopent-2-en-1-one], the inhibition at 12.5 µM was 64% in [1]; 36% in test [2]; 88% in test [3]; 34% in [4]; < 20% in test [5]; < 0% in test [6] (RAW264.7, 16 h). Besides, the inhibition at 12.5 µM in test [7] is < 20%. Also, the Emax at 12.5 µM on PPARα (setting [8]) and on PPARγ (setting [9]) was < 5% in each case.

For the compound `C#CCCOC(=O)O[C@]1(C(=O)CCC(C)C)C(O)=C(C(=O)CC(C)C)C(=O)[C@@H]1CCC(C)C` [KDT0035, but-3-yn-1-yl (1S,5R)-2-hydroxy-3-(3-methylbutanoyl)-5-(3-methylbutyl)-1-(4-methylpentanoyl)-4-oxocyclopent-2-en-1-yl carbonate], the inhibition at 12.5 µM in [1] stood at 84%; in [2], 82%; in [3], 95%; in test [4], 77%; in [5], 89%; in test [6] (RAW264.7, 16 h), 44%. The same compound registered an inhibition at 12.5 µM in test [7] of 65%. Also, the “PPARα % GW590735 (20.6 nM)” value at PPARα (setting [8]) is “dual PPARα and PPARγ agonists”. For the same compound, the figures for the Emax at 12.5 µM on PPARα (setting [8]) and on PPARγ (setting [9]) were 40% and 43%, respectively.

With `CC(C)CCC(=O)[C@@]1(O)C([O-])=C(C(=O)CC(C)C)C(=O)[C@@H]1CCC(C)C.[K+]` (stereo in doubt) [KDT501, Potassium salt of (+)-KDT500], the inhibition at 12.5 µM in [1] stood at 77%; in [2], 62%; in test [3] it was 77%; in [4] it was 48%; in test [6] (16 hours), 23%; in [7], 49%. In test [5] (6 hours), the “% inhibition of PGE2 production” value is reported as “No inhibition (NI)”. The values for the Emax at 12.5 µM on PPARα (20 h) and on PPARγ (read-out: PPARγ % rosiglitazone (500 nM)) were < 5% and 31%, respectively.

These data come from patent US10343977B2, “Tetrahydro-isohumulone derivatives, methods of making and using” (KINDEX PHARMACEUTICALS, INC., priority 2012, dated 2019).
